1 compound from publication PMC8539420, “Discovery of a Potent and Selective JNK3 Inhibitor with Neuroprotective Effect Against Amyloid β-Induced Neurotoxicity in Primary Rat Neurons” (International Journal of Molecular Sciences, 2021) can be followed below.

For one series, the target named is T1, PKA (Homo sapiens, UniProt P17612).
T1 construct: purchased Reaction Biology Corp. (Kinase HotSpot)
In words: Kinase panel screening 1 μM. Type of series: biochemical. The note with it: read-out: enzymatic inhibition PKA.

The target in a further series is T2, ERK1 (Homo sapiens, UniProt P27361).
T2 construct: purchased Reaction Biology Corp. (Kinase HotSpot)
In words: Kinase panel screening 1 μM. The note with it: read-out: enzymatic inhibition ERK1. Type of series: biochemical.

The target of the next series is T3, MEK1 (Homo sapiens, UniProt Q02750).
T3 construct: purchased Reaction Biology Corp. (Kinase HotSpot)
In words: Kinase panel screening 1 μM. Type of series: biochemical. The note with it: read-out: enzymatic inhibition MEK1.

For the next series, the target named is T4, FMS (Homo sapiens, UniProt P07333).
T4 construct: purchased Reaction Biology Corp. (Kinase HotSpot)
T4 sequence (P07333 20-972): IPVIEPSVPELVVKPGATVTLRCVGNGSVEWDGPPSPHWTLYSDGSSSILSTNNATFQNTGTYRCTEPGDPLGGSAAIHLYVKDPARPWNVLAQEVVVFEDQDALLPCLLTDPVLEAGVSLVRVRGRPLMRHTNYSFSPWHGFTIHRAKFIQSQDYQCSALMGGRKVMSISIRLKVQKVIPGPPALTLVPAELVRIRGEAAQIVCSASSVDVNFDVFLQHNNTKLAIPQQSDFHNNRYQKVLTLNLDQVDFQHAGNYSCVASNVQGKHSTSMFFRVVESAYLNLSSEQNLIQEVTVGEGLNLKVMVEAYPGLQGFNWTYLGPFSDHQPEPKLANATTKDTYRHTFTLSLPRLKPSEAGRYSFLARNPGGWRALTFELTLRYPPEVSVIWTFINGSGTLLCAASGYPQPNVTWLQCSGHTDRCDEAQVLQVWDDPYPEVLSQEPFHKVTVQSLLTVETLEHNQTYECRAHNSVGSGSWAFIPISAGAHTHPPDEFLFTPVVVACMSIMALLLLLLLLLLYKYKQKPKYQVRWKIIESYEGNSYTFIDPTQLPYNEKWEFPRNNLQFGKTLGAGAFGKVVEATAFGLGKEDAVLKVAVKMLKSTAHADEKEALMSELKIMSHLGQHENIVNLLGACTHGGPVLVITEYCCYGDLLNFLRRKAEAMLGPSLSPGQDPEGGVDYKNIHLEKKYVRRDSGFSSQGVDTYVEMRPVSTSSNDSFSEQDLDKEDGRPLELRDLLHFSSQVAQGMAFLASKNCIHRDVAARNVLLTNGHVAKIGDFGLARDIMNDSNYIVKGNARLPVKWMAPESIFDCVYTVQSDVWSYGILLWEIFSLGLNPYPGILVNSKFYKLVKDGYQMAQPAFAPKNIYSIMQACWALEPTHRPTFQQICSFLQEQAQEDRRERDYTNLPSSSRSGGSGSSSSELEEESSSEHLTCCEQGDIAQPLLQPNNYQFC
The experiment in a line: Kinase panel screening 1 μM. Type of series: biochemical. The note with it: read-out: enzymatic inhibition FMS.

The next series has as its target T5, BTK (Homo sapiens, UniProt Q06187).
T5 construct: purchased Reaction Biology Corp. (Kinase HotSpot)
In words: Kinase panel screening 1 μM. It is filed as biochemical. Conditions: read-out: enzymatic inhibition BTK.

The target of a further series is T6, AXL (R499C) (Homo sapiens, UniProt P30530, R499C).
T6 construct: purchased Reaction Biology Corp. (Kinase HotSpot)
T6 sequence (P30530 26-894 R499C): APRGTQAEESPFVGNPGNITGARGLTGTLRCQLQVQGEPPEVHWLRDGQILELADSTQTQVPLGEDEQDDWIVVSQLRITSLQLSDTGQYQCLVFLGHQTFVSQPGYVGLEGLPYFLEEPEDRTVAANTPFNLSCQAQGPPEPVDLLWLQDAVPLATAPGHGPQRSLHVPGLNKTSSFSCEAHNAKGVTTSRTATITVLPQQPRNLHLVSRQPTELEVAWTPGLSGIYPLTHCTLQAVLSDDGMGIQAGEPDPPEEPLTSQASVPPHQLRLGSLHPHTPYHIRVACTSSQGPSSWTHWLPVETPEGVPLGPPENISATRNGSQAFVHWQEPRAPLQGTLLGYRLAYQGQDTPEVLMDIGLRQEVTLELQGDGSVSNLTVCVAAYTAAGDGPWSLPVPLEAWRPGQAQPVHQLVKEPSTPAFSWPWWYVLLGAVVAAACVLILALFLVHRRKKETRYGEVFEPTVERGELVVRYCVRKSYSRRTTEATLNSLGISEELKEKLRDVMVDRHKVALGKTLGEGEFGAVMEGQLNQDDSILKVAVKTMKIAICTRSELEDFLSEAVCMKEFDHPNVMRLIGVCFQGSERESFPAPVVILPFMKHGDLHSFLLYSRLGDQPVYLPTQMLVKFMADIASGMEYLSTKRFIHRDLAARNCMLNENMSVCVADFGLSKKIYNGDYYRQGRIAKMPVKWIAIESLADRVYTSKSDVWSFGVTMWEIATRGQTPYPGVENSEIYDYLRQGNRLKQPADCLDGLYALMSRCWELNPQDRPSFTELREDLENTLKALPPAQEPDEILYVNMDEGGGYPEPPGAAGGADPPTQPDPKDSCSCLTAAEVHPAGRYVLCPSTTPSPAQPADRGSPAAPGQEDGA
In words: Kinase panel screening 1 μM. Type of series: biochemical. The note with it: read-out: enzymatic inhibition AXL (R499C).

The target in another series is T7, AXL (Homo sapiens, UniProt P30530).
T7 construct: purchased Reaction Biology Corp. (Kinase HotSpot)
T7 sequence (P30530 26-894): as the sequence (P30530 26-894 R499C) above, with C474R counted along it
In words: Kinase panel screening 1 μM. Type of series: biochemical. Conditions: read-out: enzymatic inhibition AXL.

The next series has as its target T8, RON/MST1R (Homo sapiens, UniProt Q04912).
T8 construct: purchased Reaction Biology Corp. (Kinase HotSpot)
The experiment in a line: Kinase panel screening 1 μM. It is filed as biochemical. Conditions: read-out: enzymatic inhibition RON/MST1R.

Another series deals with T9, JNK3(h) (Homo sapiens, UniProt P53779).
T9 construct: purchased Reaction Biology Corp
T9 sequence (P53779 whole entry): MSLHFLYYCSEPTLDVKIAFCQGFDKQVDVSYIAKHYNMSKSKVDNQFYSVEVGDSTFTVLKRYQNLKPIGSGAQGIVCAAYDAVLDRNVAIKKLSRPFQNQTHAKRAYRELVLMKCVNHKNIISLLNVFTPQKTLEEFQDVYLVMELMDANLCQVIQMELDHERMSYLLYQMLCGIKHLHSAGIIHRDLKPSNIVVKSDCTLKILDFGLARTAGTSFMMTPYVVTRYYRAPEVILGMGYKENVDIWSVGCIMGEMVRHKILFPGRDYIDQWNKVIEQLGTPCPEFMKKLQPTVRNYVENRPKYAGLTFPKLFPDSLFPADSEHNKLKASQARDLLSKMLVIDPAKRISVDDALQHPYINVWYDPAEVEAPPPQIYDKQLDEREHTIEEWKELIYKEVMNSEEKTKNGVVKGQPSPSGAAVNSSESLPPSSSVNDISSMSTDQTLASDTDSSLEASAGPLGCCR
In words: Kinase HotSpot radiometric assay, JNK3. It is filed as biochemical.

Another series deals with T10, TRKC (Homo sapiens, UniProt Q16288).
T10 construct: purchased Reaction Biology Corp. (Kinase HotSpot)
In words: Kinase panel screening 1 μM. Type of series: biochemical. The note with it: read-out: enzymatic inhibition TRKC.

A further series has as its system over 38 kinases. In words: Kinase panel screening, single dose 1 μM, whole panel. Type of series: biochemical. The note with it: duplicate.
A further series addresses T11, EGFR (Homo sapiens, UniProt P00533).
T11 construct: purchased Reaction Biology Corp. (Kinase HotSpot)
The experiment in a line: Kinase panel screening 1 μM. It is filed as biochemical. Conditions: read-out: enzymatic inhibition EGFR.

Another series addresses T12, c-MER (Homo sapiens, UniProt Q12866).
T12 construct: purchased Reaction Biology Corp. (Kinase HotSpot)
The experiment in a line: Kinase panel screening 1 μM. Type of series: biochemical. Conditions: read-out: enzymatic inhibition c-MER.

Series [1] relates to primary rat cortical neuron. In words: Cell viability (MTT) from Aβ-induced neurotoxicity. It is filed as cell-based. Conditions: for Neuroprotection: Aβ-induced primary rat cortical neuronal death. An excerpt: To establish whether the derived selective JNK3 inhibitor actually has the ability to protect neurons from amyloid β-induced neuronal cell death, which is known as the pathogenesis of Alzheimer’s disease, we performed cytotoxicity experiments using Aβ 42, which is known as the most toxic fragment of the amyloid protein. The amyloid-β is known to mainly cause apoptosis during cell death, so it was confirmed whether the derived selective JNK3 inhibitors affect the activation (cleavage) of caspase-3, which are apoptosis-related signaling substances. […] This means that selective JNK3 inhibitors can inhibit apoptosis signaling by amyloid-β in neurons, thereby inhibiting apoptosis. Additionally, we confirmed that JNK activation was induced by amyloid-β in neurons, and the derived selective JNK3 inhibitors could inhibit JNK activation induced by amyloid-β. […] Then, the experiments for JNK3 inhibitors’ effect on the viability of neurons were conducted for five 6-dihydroxy benzimidazoles (35a-35e) by comparing it with previously published resveratrol as a positive control. On the 5th day of rat primary cortical neuron differentiation, each compound was pre-treated for 90 min and then treated with 10 μM Aβ 42 (HIFP-treated) for 24 or 48 h, and cell viability was measured by MTT assay.
In initial experiments, rat hippocampal cells grown in serum-free neurobasal media containing B27 supplements at day 6 were treated with different concentrations of Aβ1–42 or Aβ1–40 for 24 h and then the cell viability was measured by colorimetric MTT assay. Aggregated Aβ1–42 and Aβ1–40 caused up to 40–60% cell death at concentrations ranging from […]. […] Resveratrol was active against various amyloid-related peptides including Aβ1–42, the most neurotoxic amyloid derivative present in the AD brain. […] Primary Rat Cortex Neurons, Sprague Dawley (Gibco, A36512, Fisher Scientific, Göteborg, Sweden), were cultured in Neurobasal™ Plus culture medium (Gibco, A3582901 Fisher Scientific, Göteborg, Sweden), supplemented with B-27™ Supplement (Gibco, A3582801 Fisher Scientific, Göteborg, Sweden) and 0.5 mM GlutaMAX™ Supplement (Gibco, 35050061 Fisher Scientific, Göteborg, Sweden) at 37 °C in a humidified 5% CO2 atmosphere. We plated –2 × 10^5 live cells per well in a poly-D-lysine/laminin coated 24-well plate. For neural differentiation, half of the medium was replaced with fresh complete medium every third day. On day 6, we removed half the volume of media from the culture plate, added an equal amount of complete culture media containing test compounds or vehicle to each well, and incubated them for 90 min at 37 °C and 5% CO2. Immediately prior to use, amyloid β-Protein (1–42) (HFIP-treated) (Bachem, 4090148.0100) was dissolved in 1% NH4OH, further diluted with culture medium, and added into the plates to a final concentration of 10 μM. Cells were incubated for 24 h with vehicle control or test compounds in the presence or absence of Aβ42. Cell viability was measured using the MTT [3-(4, 5-dimethylthiazol-2-yl)-2,5-diphenyltetrazolium bromide] assay. MTT solution was added into each well at a final concentration of 0.5 mg/mL, and cells were incubated at 37 °C for 4 h. The absorbance was detected at 540 nm (reference 650 nm) with a microplate reader. All results were normalized to OD values measured from the vehicle control (DMSO). […]
Primary Rat Cortex Neurons, Sprague Dawley (Gibco, A36512) were cultured in Neurobasal™ Plus culture medium (Gibco, A3582901), supplemented with B-27™ Supplement (Gibco, A3582801) and 0.5mM GlutaMAX™ Supplement (Gibco, 35050061) at 37 °C in a humidified 5% CO2 atmosphere. Plate ~2 × 10^5 live cells per well in a poly-D-lysine/laminin coated 24-well plate. For neural differentiation, half of the medium was replaced with fresh complete medium every third day. On day 6, remove half the volume of media from the culture plate and add an equal amount of complete culture media […]

The target of a further series is T13, CDK1/cyclin A (Homo sapiens, UniProt P06493).
T13 construct: purchased Reaction Biology Corp. (Kinase HotSpot)
T13 sequence (P06493 whole entry): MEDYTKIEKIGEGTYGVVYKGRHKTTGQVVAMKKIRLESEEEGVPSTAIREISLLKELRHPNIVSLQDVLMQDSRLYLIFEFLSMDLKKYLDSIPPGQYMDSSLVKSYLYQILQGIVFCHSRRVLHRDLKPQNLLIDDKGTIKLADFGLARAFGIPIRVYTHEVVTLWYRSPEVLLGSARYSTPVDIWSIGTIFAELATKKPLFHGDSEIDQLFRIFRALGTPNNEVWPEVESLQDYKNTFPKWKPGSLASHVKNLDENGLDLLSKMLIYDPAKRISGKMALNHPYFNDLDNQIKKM
T13 sequence (P20248 whole entry partner): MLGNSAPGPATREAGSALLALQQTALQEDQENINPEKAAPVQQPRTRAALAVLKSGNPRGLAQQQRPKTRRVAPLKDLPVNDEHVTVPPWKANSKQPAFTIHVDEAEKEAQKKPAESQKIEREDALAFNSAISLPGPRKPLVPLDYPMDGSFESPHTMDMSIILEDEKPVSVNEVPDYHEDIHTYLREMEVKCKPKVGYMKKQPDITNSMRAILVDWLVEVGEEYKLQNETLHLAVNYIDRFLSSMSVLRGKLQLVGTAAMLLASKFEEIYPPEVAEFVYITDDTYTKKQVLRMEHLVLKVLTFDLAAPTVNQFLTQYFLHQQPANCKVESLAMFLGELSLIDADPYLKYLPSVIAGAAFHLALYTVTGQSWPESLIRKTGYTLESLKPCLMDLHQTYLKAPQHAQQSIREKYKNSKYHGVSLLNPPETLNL
In words: Kinase panel screening 1 μM. It is filed as biochemical. Conditions: read-out: enzymatic inhibition CDK1/cyclin A.

For the next series, the target named is T14, c-Kit (Homo sapiens, UniProt P10721).
T14 construct: purchased Reaction Biology Corp. (Kinase HotSpot)
The experiment in a line: Kinase panel screening 1 μM. It is filed as biochemical. Conditions: read-out: enzymatic inhibition c-Kit.

pIC50: −log10 of the molar value.

T11 sequence (P00533 25-1210): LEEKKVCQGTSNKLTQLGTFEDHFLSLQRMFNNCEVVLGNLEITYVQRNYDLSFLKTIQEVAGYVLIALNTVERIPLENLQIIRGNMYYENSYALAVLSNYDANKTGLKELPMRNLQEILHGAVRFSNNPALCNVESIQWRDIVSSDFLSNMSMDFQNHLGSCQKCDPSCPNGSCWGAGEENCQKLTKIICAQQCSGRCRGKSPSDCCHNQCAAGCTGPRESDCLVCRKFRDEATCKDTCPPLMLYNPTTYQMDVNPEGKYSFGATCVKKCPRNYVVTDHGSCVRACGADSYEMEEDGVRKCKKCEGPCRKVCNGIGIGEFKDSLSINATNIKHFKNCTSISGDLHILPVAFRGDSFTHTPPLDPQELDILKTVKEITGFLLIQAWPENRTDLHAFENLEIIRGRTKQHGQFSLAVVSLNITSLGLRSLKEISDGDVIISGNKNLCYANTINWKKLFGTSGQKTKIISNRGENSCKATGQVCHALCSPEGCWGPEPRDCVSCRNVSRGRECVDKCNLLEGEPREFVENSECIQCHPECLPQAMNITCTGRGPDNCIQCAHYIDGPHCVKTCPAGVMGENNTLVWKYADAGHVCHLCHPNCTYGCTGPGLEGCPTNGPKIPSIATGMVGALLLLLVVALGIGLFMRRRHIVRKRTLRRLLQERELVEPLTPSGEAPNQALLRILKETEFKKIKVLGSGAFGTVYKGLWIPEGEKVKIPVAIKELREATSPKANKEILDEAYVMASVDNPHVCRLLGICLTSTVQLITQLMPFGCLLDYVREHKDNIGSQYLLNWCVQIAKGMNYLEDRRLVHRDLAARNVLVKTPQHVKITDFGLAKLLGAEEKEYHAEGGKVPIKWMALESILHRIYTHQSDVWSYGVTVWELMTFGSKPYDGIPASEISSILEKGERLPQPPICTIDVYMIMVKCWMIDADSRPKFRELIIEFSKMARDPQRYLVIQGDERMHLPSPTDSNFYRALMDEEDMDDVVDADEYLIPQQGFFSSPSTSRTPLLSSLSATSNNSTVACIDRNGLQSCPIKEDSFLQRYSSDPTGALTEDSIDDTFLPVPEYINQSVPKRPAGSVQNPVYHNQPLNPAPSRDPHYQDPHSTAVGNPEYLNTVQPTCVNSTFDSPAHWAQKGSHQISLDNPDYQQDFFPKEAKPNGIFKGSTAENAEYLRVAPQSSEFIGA
T5 sequence (Q06187 whole entry): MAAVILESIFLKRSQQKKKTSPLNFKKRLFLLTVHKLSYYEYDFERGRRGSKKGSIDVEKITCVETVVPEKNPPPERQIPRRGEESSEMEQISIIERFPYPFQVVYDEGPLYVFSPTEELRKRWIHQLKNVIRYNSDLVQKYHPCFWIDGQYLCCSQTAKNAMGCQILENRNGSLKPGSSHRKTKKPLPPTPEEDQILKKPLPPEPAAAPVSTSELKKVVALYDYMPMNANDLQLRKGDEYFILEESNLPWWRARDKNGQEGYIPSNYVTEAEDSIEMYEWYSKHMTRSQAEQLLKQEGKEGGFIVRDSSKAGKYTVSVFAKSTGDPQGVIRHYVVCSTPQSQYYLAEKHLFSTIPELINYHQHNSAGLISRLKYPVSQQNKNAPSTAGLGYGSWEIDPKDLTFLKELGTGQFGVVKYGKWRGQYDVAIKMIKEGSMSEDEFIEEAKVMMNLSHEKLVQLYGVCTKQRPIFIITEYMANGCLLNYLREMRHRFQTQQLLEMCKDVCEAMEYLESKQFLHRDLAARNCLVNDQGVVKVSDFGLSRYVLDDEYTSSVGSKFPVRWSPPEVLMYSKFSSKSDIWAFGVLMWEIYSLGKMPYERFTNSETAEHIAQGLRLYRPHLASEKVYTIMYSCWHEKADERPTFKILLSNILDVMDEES

For orientation: pIC50 means the negative decadic logarithm of the IC50, by convention in mol/L. Consider `O=C(C1CC1)N1CCC[C@H](Nc2nccc(-n3c(-c4ccc5c(c4)OCCO5)nc4cc(O)c(O)cc43)n2)C1` [35b, (S)-Cyclopropyl(3-((4-(2-(2,3-dihydrobenzo[b][1,4]dioxin-6-yl)-5,6-dihydroxy-1H-benzo[d]imidazol-1-yl)pyrimidin-2-yl)amino)piperidin-1-yl)methanone], for which the inhibition at 1 µM came to 0% on PKA; 0% at ERK1; 0% on MEK1; 8.11% on FMS; 9.53% on BTK; 0.64% at AXL (R499C). Also, the inhibition at 1 µM on AXL was 6.37%; at RON/MST1R, 0%; on JNK3(h) (1 μM, read-out: enzymatic inhibition JNK3), 90%; at TRKC, 8.78%; on EGFR, 0%; on c-MER, 2.29%. Also, the inhibition at 1 µM at CDK1/cyclin A and on c-Kit was 0% throughout. Besides, the negative logarithm of the IC50 (pIC50) at JNK3(h) (ATP 10 μM, substrate ATF2 5 μM, read-out: JNK3 inhibitory activity IC50) is 8.01. In the series with over 38 kinases, the “inhibition activity for most other kinases” value is listed as “less than 15%”. The Neuroprotection in series [1] was 95.7%; in series [1] (listed as Present report), greater than 95.7 ± 2.9%. For the same compound, the “Cell viability, Mean” value in [1] (pre-treated 90 min, then 10 μM Aβ42, MTT, normalized to vehicle control (DMSO), compound concentration not given) is reported as 95.7 ± 2.9%.
